Assay results reported in patent EP4624457A1, “I[…] DERIVATIVES, I[…] NEURODEGENERATIVE DISEASES” (Centre National de la Recherche Scientifique, priority 2024, dated 2025).
Like-named read-outs stand apart in the source and are kept apart here.

Assays:
[1] = biological target: muscle (α1)2βγδ nAChR subtype (Torpedo marmorata, UniProt P02711+Q6S3H8+Q6S3H9); test: Two-electrode voltage clamp electrophysiology, antagonistic activity on Xenopus laevis oocytes having incorporated Torpedo muscle-type nAChR; type: cell-based; settings: TEVC, value (95% CI), toxin purified by the applicant, Figure 5, read-out: nAChR subtype (nM; 95% CI) α12β1γδ (Torpedo)
Excerpt: The emerging cyclic imines toxins (CiTXs) of global distribution across coastal environments that are produced by dinoflagellates move fast up the human food chain through shellfish. The CiTX family includes 44 compounds: 7 gymnodimines (A-E, 12-methylgymnodimine and 16-desmethyl gymnodimine D), 16 spirolides (A-D, G-I, 13-desmethyl spirolide-C, 27-Hydroxy-13-desmethyl spirolide-C, 13,19-didesmethyl spirolide-C, 20-hydroxy-13,19-didesmethyl spirolide- C, 27-hydroxy-13,19-spirolide-C, 27-Oxo-13,19-didesmethyl spirolide-C, 13-desmethyl spirolide-D, 20-hydroxy-13,19-didesmethyl spirolide-D and 20-methyl spirolide-G), 8 pinnatoxins (A-H), 3 pteriatoxins (A-C), 6 prorocentrolides (A-B, 4- hydroxyprorocentrolide, 9,51-dihydro prorocentrolide, 30-sulfate prorocentrolide and 14-O-acetyl-4-hydroxyprorocentrolide), 1 spiroprorocentrimine, 2 portimines (A and B), and 1 kabirimine, (Aráoz et al. (2020) Cyclic imine toxins survey in coastal european shellfish samples: Bioaccumulation and mode of action of 28-O-palmitoyl ester of pinnatoxin-G. First report of portimine-A bioaccumulation. Harmful Algae, 98 [1]). The spiroimine moiety is the major feature characterizing cyclic imine toxins. […]

cancer cell lines [2] = settings: literature (Tang et al. 2023; Fribley et al. 2019); cited from earlier work
HCT116 cells = test: JC-1 mitochondrial membrane potential assay (flow cytometry); type: cell-based, human
Jurkat cells = settings: 50 nM for 6 h; cited from earlier work
cancer cell lines [3] = test: Cytotoxic activity of CiTX, comparison of orders of magnitude; type: cell-based; settings: this work
Description: Cell viability. […] The cell viability assay was performed using portimine-A as a positive control (Table 4). […] Table 4. Cytotoxic activity of portimine-A and ingrilimine

Sequence of muscle (α1)2βγδ nAChR subtype (P02711 25-461): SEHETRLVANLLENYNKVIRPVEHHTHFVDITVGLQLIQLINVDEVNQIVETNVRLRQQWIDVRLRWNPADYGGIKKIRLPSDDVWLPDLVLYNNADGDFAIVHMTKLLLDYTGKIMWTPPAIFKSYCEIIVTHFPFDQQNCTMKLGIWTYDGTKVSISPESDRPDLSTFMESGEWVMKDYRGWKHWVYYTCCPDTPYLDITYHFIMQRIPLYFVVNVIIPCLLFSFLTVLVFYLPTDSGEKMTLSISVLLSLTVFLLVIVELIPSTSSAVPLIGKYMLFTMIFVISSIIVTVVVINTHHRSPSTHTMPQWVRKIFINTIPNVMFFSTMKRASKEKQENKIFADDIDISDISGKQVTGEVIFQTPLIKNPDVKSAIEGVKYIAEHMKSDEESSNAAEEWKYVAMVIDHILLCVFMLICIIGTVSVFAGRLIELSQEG
Sequence of muscle (α1)2βγδ nAChR subtype (Q6S3H9 entry or part of it): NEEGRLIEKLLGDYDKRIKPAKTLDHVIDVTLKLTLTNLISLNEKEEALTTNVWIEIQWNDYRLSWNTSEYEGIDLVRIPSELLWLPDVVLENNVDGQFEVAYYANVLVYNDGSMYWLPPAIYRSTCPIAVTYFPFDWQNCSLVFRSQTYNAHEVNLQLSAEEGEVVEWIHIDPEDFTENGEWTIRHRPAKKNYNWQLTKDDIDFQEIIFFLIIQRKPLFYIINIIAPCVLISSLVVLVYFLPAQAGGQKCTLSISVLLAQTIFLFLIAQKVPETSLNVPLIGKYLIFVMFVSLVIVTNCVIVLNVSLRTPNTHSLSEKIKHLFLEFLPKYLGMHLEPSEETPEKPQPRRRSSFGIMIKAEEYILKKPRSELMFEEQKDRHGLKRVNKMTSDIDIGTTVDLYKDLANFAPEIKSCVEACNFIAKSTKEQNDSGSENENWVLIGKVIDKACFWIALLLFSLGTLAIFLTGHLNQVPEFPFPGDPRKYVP
Sequence of muscle (α1)2βγδ nAChR subtype (Q6S3H8 entry or part of it): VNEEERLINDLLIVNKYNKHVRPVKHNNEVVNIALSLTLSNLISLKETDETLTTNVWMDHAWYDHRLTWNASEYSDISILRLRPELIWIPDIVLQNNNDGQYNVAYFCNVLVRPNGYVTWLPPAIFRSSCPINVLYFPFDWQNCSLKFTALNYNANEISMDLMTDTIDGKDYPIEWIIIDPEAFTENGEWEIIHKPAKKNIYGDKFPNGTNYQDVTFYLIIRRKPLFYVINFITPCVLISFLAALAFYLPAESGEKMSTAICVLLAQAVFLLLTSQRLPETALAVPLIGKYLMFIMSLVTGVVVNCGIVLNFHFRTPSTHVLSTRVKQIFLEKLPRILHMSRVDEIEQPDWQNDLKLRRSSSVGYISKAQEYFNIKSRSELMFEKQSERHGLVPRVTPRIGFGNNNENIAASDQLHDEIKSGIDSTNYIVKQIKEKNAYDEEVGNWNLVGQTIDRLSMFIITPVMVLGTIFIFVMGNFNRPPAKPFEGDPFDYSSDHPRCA
Sequence of muscle (α1)2βγδ nAChR subtype (Q6S3I0 entry or part of it, further chain): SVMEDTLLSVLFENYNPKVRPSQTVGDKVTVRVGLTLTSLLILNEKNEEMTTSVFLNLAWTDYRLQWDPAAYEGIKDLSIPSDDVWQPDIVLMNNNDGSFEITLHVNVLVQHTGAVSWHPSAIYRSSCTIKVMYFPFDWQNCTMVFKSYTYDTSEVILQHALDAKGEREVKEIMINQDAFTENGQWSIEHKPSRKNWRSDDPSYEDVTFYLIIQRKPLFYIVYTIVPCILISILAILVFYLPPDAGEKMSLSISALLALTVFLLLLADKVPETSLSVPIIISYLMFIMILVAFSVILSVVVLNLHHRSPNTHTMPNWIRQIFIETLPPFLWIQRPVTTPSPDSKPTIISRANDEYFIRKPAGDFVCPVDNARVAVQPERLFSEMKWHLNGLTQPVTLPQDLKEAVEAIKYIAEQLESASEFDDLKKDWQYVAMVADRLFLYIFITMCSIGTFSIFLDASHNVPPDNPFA

Row | Structure (SMILES) | IC50 [1] [nM] | cytotoxic activities, order of magnitude (cancer cell lines [2]) | JC-1 % (HCT116 cells; 1 nM, 24 h, cells with mitochondrial membrane depolarization) [%] | JC-1 % (HCT116 cells; 1 nM, 48 h) [%] | JC-1 % (HCT116 cells; 5 nM, 24 h) [%] | annexin V-positive cells (Jurkat cells) [%] | viable cells (Jurkat cells) [%] | cytotoxic activities, order of magnitude (cancer cell lines [3])
1 | C=CC1=C[C@@H]2[C@@H]3O[C@]4(CC[C@H](O4)[C@@H](C)C[C@@H](O)C3=O)C[C@H](O)C3=NCC[C@@]32CC1 [Portimine-A] | 11900 | ~10^-9 M | 5.1 | 8.1 | 9.2 | 50 | 50 | –
2 | C=CC1=C[C@@H]2C[C@@H](O)[C@@H](O)/C(C)=C/C/C(C)=C/CCC3=NCCC[C@]32CC1 [Ingrilimine, ingrilimine] | – | – | – | – | – | – | – | ~10^-8 M
